Experimental data: patent publication US20120093947A1, “METHOD OF TREATING REACTIVE AIRWAY DISEASE” (UNITED STATES DEPARTMENT OF VETERANS AFFAIRS, priority 2009, published 2012)

Target: T1, EPO (Homo sapiens, UniProt P11678)
T1 construct: purchased Calbiochem
Assay: Nitration of salbutamol by EPO/H2O2/NO2−, A410
Format: biochemical
Settings: 50 μM salbutamol, 5 mM NaNO2, 2 mM H2O2, 0.075 U/mL EPO, pH 7.0, 60 min, ΔA410 versus control
Protocol: Spectrophotometric Measurements. Spectra are measured using an Agilent diode array spectrophotometer model 8453 (Agilent Technologies, Inc., Santa Clara, Calif.). Nitration of salbutamol is studied by measuring absorption spectra at designated time points following the start of the reaction. Samples are prepared in 100 mM phosphate buffers (pH 7.0). All buffers contained DTPA (100 μM) or are pretreated with Chelex-100 before use, and measurements are performed at ambient temperature of 20° C. Typically, the reaction is started by the addition of a small aliquot of H2O2 or the desired peroxidase. Time course measurements are carried out following changes in absorbance at 410 nm in 30 second intervals versus absorbance at 800 nm, where none of the compounds absorb.
We also examine the effect of methimazole on nitration catalyzed by MPO and EPO. 50 μM of salbutamol is reacted with 0.2 U/mL MPO, 5 mM NaNO2, and 2.1 mM H2O2 at pH buffer 7.0 in the presence of 0, 25, 50, and 100 μM methimazole (shown in FIG. 9, section B, traces a-d, respectively). In contrast to inhibition of nitration by LPO system, which was irreversible, inhibitory action of methimazole on MPO/H2O2/NO2^− is transitory.
The extent of nitration is expressed as a change in ΔA410 versus control (dapsone omitted) taken as 100% after 10, 30, and 60 minute reactions for LPO, MPO, and EPO nitrating systems, respectively. […]

T1 sequence (P11678 251-715 limits assumed): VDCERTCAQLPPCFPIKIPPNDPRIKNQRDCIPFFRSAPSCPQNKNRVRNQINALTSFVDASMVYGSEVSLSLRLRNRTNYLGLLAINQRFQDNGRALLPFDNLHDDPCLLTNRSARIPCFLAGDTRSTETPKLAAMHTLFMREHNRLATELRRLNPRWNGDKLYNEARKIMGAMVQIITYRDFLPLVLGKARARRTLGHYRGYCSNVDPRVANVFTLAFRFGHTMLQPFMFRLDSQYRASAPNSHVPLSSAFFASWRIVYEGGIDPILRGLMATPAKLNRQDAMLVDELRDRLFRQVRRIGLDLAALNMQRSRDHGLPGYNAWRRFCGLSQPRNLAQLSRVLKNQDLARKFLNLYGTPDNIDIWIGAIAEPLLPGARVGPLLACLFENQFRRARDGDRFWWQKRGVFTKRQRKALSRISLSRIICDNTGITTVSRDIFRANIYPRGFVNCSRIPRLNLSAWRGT
T1 sequence (P11678 140-250 limits assumed): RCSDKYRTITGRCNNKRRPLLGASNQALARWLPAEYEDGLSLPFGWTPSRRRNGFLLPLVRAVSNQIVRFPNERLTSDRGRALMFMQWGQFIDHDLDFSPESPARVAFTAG

Nitrophenols, (%) EPO (dapsone 140 μM): 57% | Nitrophenols, (%) EPO (dapsone 300 μM): 34 ± 2%
SMILES: Nc1ccc(S(=O)(=O)c2ccc(N)cc2)cc1 [Dapsone, diamino-diphenyl sulfone]
